Tests used:
[1] = test system: intracerebral (i.c.) Streptozotocin (STZ) rat model of Alzheimer's disease; experiment: Intracerebral Streptozotocin rat model of Alzheimer's disease, Morris Water Maze testing; type: in vivo, Long Evans rats; settings: 0.25 mg/kg oral gavage every other day for 14 days; control and STZ rats; tested 11 days post-dosing
Experimental: The experimental rat model of Alzheimer's disease used in Table 7 involves intracerebral (i.c.) treatment with Streptozotocin (STZ), to cause brain metabolic dysfunction and insulin resistance as occurs in human sporadic Alzheimer' disease, with minimal or no systemic side-effects. Long Evans 4-week old male and female rats (8-12/group) were anesthetized by intraperitoneal (i.p.) injection of ketamine (100 mg/kg) plus xylazine (10 mg/kg). After shaving and cleaning (betadine x2 followed by 70% ethanol) the scalps, the rats were positioned in a stereotaxic frame and a midline incision was made. With subcutaneous tissue and skeletal muscle separated and retracted with small surgical hooks, the bregma and lambda areas were cleaned with 3% H2O2 soaked cotton swabs. […]
T3D-959 administration (0.25 mg/kg) to control and STZ rats was by oral gavage every other day for a period of 14-days. […] The latency to locate the platform was measured. Spatial memory and orientation were assessed by requiring the rat to locate the hidden platform from different entry points in the maze. […]
Data were analyzed by first calculating area under curves for each set of 3 trials, then averaging the AUC results within-group. […] Data were analyzed by 1-way ANOVA with Fisher post-tests. […]

[2] = test system: mild to moderate severity Alzheimer's patients (MMSE=14-26); experiment: ADAS-cog11 score change in Alzheimer's patients after 14-day treatment; type: in vivo, human
Experimental: ADAS-cog11 score change from day 1 to day 14 (D1-D14), the end of 2-week treatment is compared to the ADAS-cog 1 from day 1 to day 21 (D1-D21), 7-days post treatment follow-up. With ADAS-cog 1 test scoring a greater negative score denotes greater cognitive improvement. Drug treatment of mild to moderate severity Alzheimer's patients (MMSE=14-26) with T3D-959 was for 14 days q.d. at 3 mg, 10 mg, 30 mg or 90 mg (n=number of subjects evaluable at each dose).

For CCc1oc(-c2ccc(OC)cc2)nc1CCOc1ccc2c(c1)CC[C@H]2CC(=O)[O-].[Na+] [Example T3D-959], the “Morris Water Maze latency to locate the platform (spatial localization and memory, AUC of trials)” value [1] was “benefited control as well as STZ-exposed rats”, the “subjects who exhibited an improved ADAS-cog11 test score” value ([2]; 10 mg cohort, 14 days q.d.) was 5 of 9 and the “ADAS-cog11 score change D1-D14 compared to D1-D21” value ([2]; 14 days q.d. at 3 mg, 10 mg, 30 mg or 90 mg, D21 = 7-days post treatment follow-up) was “cognitive improvement lasting beyond the end of treatment”.

— US20180153860A1, “METHODS OF DOSE ADMINISTRATION FOR TREATING OR PREVENTING COGNITIVE IMPAIRMENT USING INDANE ACETIC ACID DERIVATIVES” (T3D Therapeutics, Inc., priority 2016, published 2018)
